Test results published in patent publication US5792457A, “Antibody recognizing endothelial cell ligand for leukocyte CR3” (priority 1995, dated 1998).

Legend:
[1] = biological target: T1, CD11b/CD18 (Homo sapiens, UniProt P05107+P11215); assay: Downmodulation of CD11b/CD18 on macrophages (binding of C3bi-coated erythrocytes); type: cell-based; settings: peptides 0.5 mM
T1 construct: peptide-coated wells, C3bi-erythrocyte rosetting
Protocol: FIG. 27 is a bar graph representation of the downmodμlation of CD11b/CD18 by FHA-peptides. mAb IB4 (50 μg/ml) served as a positive control. Data represent means±standard deviations of triplicate experiments with 6 wells/peptide.
Human monocytes were purified from buffy coats on Percoll gradients and cultured in 12.5% human serum in Teflon beakers. Macrophages were harvested from Teflon beakers after 6-8 days and suspended in HAP buffer. Terasaki wells were coated with 5 μl of peptides (0.5 mM) or anti-CD18 mAb IB4 (50 μg/ml). Control wells were coated with HAP. After 2 hours of incubation at RT, 5 μl of macrophages (5×10^5 /ml HAP) were added and allowed to spread for 45 mins. at 37° C. […] IgM-coated erythrocytes in buffer served as negative control. After washing, the number of erythrocytes bound per 100 leukocytes (adherence index) was quantitated visually under an inverted microscope.

[2] = system: peripheral white blood cells; assay: Rat meningitis model: peripheral white blood cell concentrations; type: in vivo, female Wistar rats; settings: following i.v. administration
Protocol: (§1) Three hours after LOS inoculation, 5 μCi of ^125 I-radiolabelled albumin in 50 μl normal saline was administered intravenously. One hour later, CSF was collected via intracisternal puncture and blood samples were collected via intracardiac puncture. CSF leukocytosis was determined by manually counting white blood cells using a hemacytometer, and blood-brain barrier permeability was determined as the percent of radioactivity in whole blood that was present in the CSF. Blood samples were obtained immediately prior to inoculation, immediately prior to treatment, and at 4 hours post-inoculation for determination of peripheral white blood cell concentrations.

[3] = Stability of FHA II peptide in 50% rabbit plasma; type: in vitro ADME; settings: 37° C.
Protocol: To determine the stability of the FHA II peptide, the unmodified or the acetylated-amidated peptide were incubated in 50% rabbit plasma at 37° C.

[4] = system: CSF leukocytosis; assay: Rat meningitis model (LOS): CSF leukocytosis; type: in vivo, female Wistar rats; settings: 600 nmol i.v., 4 hours after LOS
Protocol: The experiments were performed according to established protocols (Wispelway et al., 1988, J. Clin. Invest., 82: 1339-1346). Purified Haemophilus influenzae type b strain DL42 lipooligosaccharide (LOS) was prepared for inoculation by sonication for 30 minutes, dilution to the desired concentration (20 ng/50 μl) in normal saline or PBS, and sonication for an additional 15 to 30 minutes just prior to use.
(§2) Briefly, anesthetized female Wistar rats were placed under a micromanipulator and inoculated intracisternally with a 25 gauge needle. After removal of 50 μl of CSF (without visible blood contamination), rats were inoculated intracisternally with 50 μl (20 ng) of LOS using a 1 ml syringe with a 25 gauge needle. Ten to fifteen minutes after inoculation with LOS, the rats were treated by intravenous administration of the test substance: a solution of an FHA peptide in PBS, a solution of a control peptide in PBS, or an equal volume of PBS alone.
as §1

[5] = system: Factor Xa procoagulant activity on THP-1 cells; assay: Generation of Factor Xa by monocytes (THP-1), clotting assay; type: cell-based; settings: for Factor Xa / Clotting time: peptides 0.5 mM; for Clotting time: mean ± SD of at least 3 experiments
Protocol: Factor Xa generation was determined by a modification of the method of Miletich et al. (1978), J. Biol. Chem. 253: 6908-6916. THP-1 cells (ATCC; […]) resuspended in RPMI 1640 (Bio Whittaker, Walkersville,Md.) were incubated with 100 μM ADP (Sigma), 2.5 mM CaC2, 1 or 5 μg/ml Factor X (Hematologic Technologies Inc.) and 0.5 mM peptides at room temperature. After 20 minutes, 100 μl of the reaction mixture was transferred to 37° C. and supplemented with 100 μl of bovine factor VII- and Factor X-deficient plasma (Sigma). Coagulation was initiated by adding 100 μl of 25 mM CaC2 and the clotting time was determined. Factor Xa procoagulant activity (ng/ml) was calculated by means of a standard curve constructed by serial concentrations of Factor Xa (Hematologic Technologies Inc.) from 50 to 250 ng/ml.

[6] = system: Factor X binding to CR3; settings: cited from earlier work
[7] = system: cerebral infarct; assay: Rat transient middle cerebral artery occlusion (MCAO): infarct volume; type: in vivo, male Wistar rats; settings: 50 nmol i.v. at reperfusion then 150 nmol i.p.; 2 hour MCAo, 2 day survival
[8] = system: blood-brain barrier permeability; assay: Rat meningitis model (LOS): blood-brain barrier permeability (125I-albumin); type: in vivo, female Wistar rats; settings: for BBB permeability: percent of radioactivity in whole blood present in CSF
Protocol: as §2, §1

[9] = system: leukocyte migration into the CSF; assay: Anti-inflammatory activity in rabbits with meningitis (FIG. 5, FIG. 6); type: in vivo, rabbit; settings: intravenous
Text: This inhibitory activity implies that antibodies to FHA which bind to any of the three Factor X regions would disturb leukocyte recruitment. This is to be distinguished from anti-FHA antibodies that bind to endothelia by recognizing an integrin receptor which is an endothelial cell component (see below). […] This is shown in FIG. 6 where various doses of antibody were given to rabbits and the number of leukocytes recruited into the cerebrospinal fluid in response to pneumonoccal meningitis was determined.

[10] = system: recognition of C3bi by antibody 12.1F9; assay: Inhibition of binding of 12.1F9 to E^C3bi by peptides; parameters: species or system human; settings: peptides 50 μg/ml
Text: Values are normalized to a control value of 100; data are expressed as the mean±SD of 6 experiments with duplicate wells.

[11] = ciliary extracts; cited from earlier work

T1 sequence (P05107 23-769, other chains not shown): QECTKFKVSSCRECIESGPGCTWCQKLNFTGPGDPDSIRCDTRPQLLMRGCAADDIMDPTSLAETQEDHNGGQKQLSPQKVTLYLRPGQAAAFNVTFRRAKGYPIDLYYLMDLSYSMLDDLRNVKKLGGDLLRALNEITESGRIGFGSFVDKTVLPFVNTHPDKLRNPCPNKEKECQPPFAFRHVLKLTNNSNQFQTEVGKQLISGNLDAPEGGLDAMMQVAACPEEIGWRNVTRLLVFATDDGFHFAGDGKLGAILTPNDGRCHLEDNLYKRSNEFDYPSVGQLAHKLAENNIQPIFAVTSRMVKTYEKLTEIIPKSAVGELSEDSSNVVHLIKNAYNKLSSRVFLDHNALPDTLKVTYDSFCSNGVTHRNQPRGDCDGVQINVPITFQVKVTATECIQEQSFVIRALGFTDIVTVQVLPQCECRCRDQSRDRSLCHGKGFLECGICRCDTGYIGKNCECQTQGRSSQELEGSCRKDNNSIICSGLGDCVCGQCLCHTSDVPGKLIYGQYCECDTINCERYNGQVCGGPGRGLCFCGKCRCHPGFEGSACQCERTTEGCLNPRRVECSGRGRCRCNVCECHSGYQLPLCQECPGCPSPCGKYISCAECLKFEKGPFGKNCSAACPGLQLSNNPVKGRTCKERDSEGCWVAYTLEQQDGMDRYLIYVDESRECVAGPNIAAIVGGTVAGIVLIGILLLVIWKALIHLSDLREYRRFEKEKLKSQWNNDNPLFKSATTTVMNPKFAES

With AADPHQGVLAQGDIIMDAKG [FHA Cc] the “downmodulation of CD11b/CD18 (in words)” value [1] was “no significant effect”.

For Ac-ETKEVDG-NH2 [Acetyl/Amide-FHA II], the neutropenia [2] was “No neutropenia was observed”, the “stability in plasma (in words)” value ([3]; 48 hours) was “remained unchanged over 48 hours” and the “Leukocytosis (CSF)” value [4] was “approximately 10,000 cells/ml”. The “Leukocytosis (CSF)” value ([4]; listed as ac/am FHA II) was 10,500 ± 8523 cells/ml.

With “DEETVK [scrambled FHA II, reference compound]” the “Factor Xa” value [5] was 165.0 ng/mL, the “Factor Xa” value ([5]; control FHA II peptide) was 165 ng/mL and the Clotting time [5] was 23.1 ± 1.0 s.

With ETKEVDG [FHA II] the “effect on Factor Xa generation (in words)” value [5] was “did not interfere with the generation of Factor Xa procoagulant activity”, the “Factor Xa” value [5] was 86.0 ng/mL and the Clotting time [5] was 30.0 ± 5.0 s. For the same substance, the “time in which concentration decreased by half” value [3] was 4 to 6 h.

In the case of GTLLLRNDALTENGTVTISA [FHA Cd], the “downmodulation of CD11b/CD18 (in words)” value [1] is reported as “no significant effect”.

In the case of GYDTKQEDG [Factor X II], the “reduction of Factor Xa production” value ([5]; 0.5 mM, vs scrambled FHA II, 20 min) is reported as over 90%, the “Factor Xa” value [5] is reported as under 10 ng/mL and the Clotting time [5] is reported as 55.2 ± 4.0 s. The “inhibition of binding of CR3 bearing cells to Factor X (in words)” value [6] was “competitively inhibit the binding of CR3 bearing tissue culture cells to purified Factor X”.

For “LGYQAK (UniProt P12255 1979-1984, looked up, fragment) [FHA Ia]”, the “Factor Xa” value [5] was 57.4 ng/mL and the Clotting time [5] was 34.1 ± 1.1 s.

For RADPHQGVLAQGDIIMDAKG [FHA Cb], the “downmodulation of CD11b/CD18 (in words)” value [1] was “no significant effect”.

With RGDPHQGVLAQGDIIMDAKG [FHA Ca] the “reduction of binding of C3bi-coated erythrocytes to macrophages” value ([1]; IB4 50 μg/ml) was 61±7%, the neutropenia [2] was “No neutropenia was observed” and the “volume of the infarct” value [7] was “approximately 25 % of the hemisphere”. The BBB permeability ([8]; 50 nmol) was 5.8 ± 2.7%, the BBB permeability ([8]; 100 nmol) was 3.0 ± 2.2% and the “Inhibition of blood-brain barrier permeability (in words)” value ([8]; rat, in vivo) was “appeared to be dose dependent”.

For “native FHA: Filamentous hemagglutinin, 220kD surface associated protein of Bordetella pertussis (List Biologicals)”, the “antiinflammatory activity in meningitis (in words)” value [9] was “antiinflammatory activity in the sense of inhibiting leukocyte migration into the CSF”, the “block of binding of 12.1F9 to E^C3bi (in words)” value [10] was “blocked binding almost completely” and the Adherence index ([10]; normalized to control value of 100, 6 experiments) was 16 ± 16. For the same substance, the “binding to lactosylceramide (in words)” value [11] was “binds to lactosylceramide”.
